# Experiment: Mouse single administration toxicity test
# Format: in vivo, Balb/C mice
# Conditions: 3 mg/kg single intravenous administration, observation period of 2 weeks
# Procedure: (Test methods) The compounds of the invention were administered by single intravenous administration to Balb/C mice, and the presence of mortal case during the observation period of 2 weeks was evaluated.
row,Compound,presence of mortal case
1,"Cn1c2c([n+](C)c1CCl)C(=O)c1ccccc1C2=O [KP-1, reference compound]",all of respective 2 cases died
2,"COCCNC1=C(N(Cc2ccncc2)C(C)=O)C(=O)c2ccccc2C1=O [Example 4, N-[3-(2-methoxyethyl)amino-1,4-dihydro-1,4-dioxo-2-naphthalenyl]-N-(4-pyridylmethyl)acetamide]",Mortal case was not found
3,"COCC[n+]1c2c(n(Cc3ccc(OC)nc3)c1C)C(=O)c1ccccc1C2=O [Example 186, 3-(2-methoxyethyl)-1-[(6-methoxy-3-pyridyl)methyl]-2-methyl-4,9-dioxo-4,9-dihydro-1H-naphtho[2,3-d]imidazol-3-ium]",Mortal case was not found
4,"COCC[n+]1c2c(n(Cc3cnccn3)c1C)C(=O)c1ccccc1C2=O [Example 154, 3-(2-methoxyethyl)-2-methyl-4,9-dioxo-1-(2-pyrazinylmethyl)-4,9-dihydro-1H-naphtho[2,3-d]imidazol-3-ium]",Mortal case was not found
5,"COCCN(C(C)=O)C1=C(NCc2ccncc2)C(=O)c2ccccc2C1=O [Example 37, N-(2-methoxyethyl)-N-[3-(4-pyridylmethyl)amino-1,4-dihydro-1,4-dioxo-2-naphthalenyl]acetamide]",Mortal case was not found
6,"COCC[n+]1c2c(n(Cc3ccc(Cl)nc3)c1C)C(=O)c1ccccc1C2=O.[Cl-] [Example 9, 1-[(6-chloro-3-pyridyl)methyl]-3-(2-methoxyethyl)-2-methyl-4,9-dioxo-4,9-dihydro-1H-naphtho[2,3-d]imidazol-3-ium chloride]",Mortal case was not found
7,"COCCn1c2c([n+](Cc3cccnc3)c1C)C(=O)c1ccccc1C2=O [Example 180, 1-(2-methoxyethyl)-2-methyl-4,9-dioxo-3-(3-pyridylmethyl)-4,9-dihydro-1H-naphtho[2,3-d]imidazol-3-ium]",Mortal case was not found
8,"COCC[n+]1c2c(n(Cc3cccnc3Cl)c1C)C(=O)c1ccccc1C2=O [Example 184, 1-[(2-chloro-3-pyridyl)methyl]-3-(2-methoxyethyl)-2-methyl-4,9-dioxo-4,9-dihydro-1H-naphtho[2,3-d]imidazol-3-ium]",Mortal case was not found
9,"COCCN(C(C)=O)C1=C(NCc2cccnc2)C(=O)c2ccccc2C1=O [Example 35, N-(2-methoxyethyl)-N-[3-(3-pyridylmethyl)amino-1,4-dihydro-1,4-dioxo-2-naphthalenyl]acetamide]",Mortal case was not found
10,"COCCn1c2c([n+](CCOC)c1C)C(=O)c1ccccc1C2=O [Example 148, 1,3-bis(2-methoxyethyl)-2-methyl-4,9-dioxo-4,9-dihydro-1H-naphtho[2,3-d]imidazol-3-ium]",Mortal case was not found
11,"COCCn1c2c([n+](Cc3ccncc3)c1C)C(=O)c1ccccc1C2=O.Cl.[Cl-] [Example 182, 1-(2-methoxyethyl)-2-methyl-3-(4-pyridylmethyl)-4,9-dihydro-4,9-dioxo-1H-naphtho[2,3-d]imidazol-3-ium chloride monohydrochloride]",Mortal case was not found
12,"COCC[n+]1c2c(n(Cc3ccnc(Cl)c3)c1C)C(=O)c1ccccc1C2=O [Example 192, 1-[(2-chloro-4-pyridyl)methyl]-3-(2-methoxyethyl)-2-methyl-4,9-dioxo-4,9-dihydro-1H-naphtho[2,3-d]imidazol-3-ium]",Mortal case was not found
13,"CCn1c2c([n+](CC)c1C)C(=O)c1ccccc1C2=O [KP-3, reference compound]",all of respective 2 cases died
14,"COCC[n+]1c2c(n(Cc3ccnc(O)c3)c1C)C(=O)c1ccccc1C2=O [Example 185, 1-[(2-hydroxy-4-pyridyl)methyl]-3-(2-methoxyethyl)-2-methyl-4,9-dioxo-4,9-dihydro-1H-naphtho[2,3-d]imidazol-3-ium]",Mortal case was not found
15,"COCC[n+]1c2c(n(Cc3ccc(Cl)cc3)c1C)C(=O)c1ccccc1C2=O [Example 197, 1-(4-chlorobenzyl)-3-(2-methoxyethyl)-2-methyl-4,9-dioxo-4,9-dihydro-1H-naphtho[2,3-d]imidazol-3-ium]",Mortal case was not found
